Our source for the IC50 and melting point values is patent US7115621B2, “Chemical compounds” (Lilly Icos LLC, priority 2001, dated 2006).

SMILES strings stand for the structures.

One data set addresses recombinant human PDE5 (Homo sapiens, UniProt O76074). Put plainly: Inhibitory effect on cGMP-PDE, one-step assay, human recombinant PDE5. The class given is biochemical. Particulars: Table 1, Examples. On the procedure: The compounds of structural formula (I) were tested for an ability to inhibit PDE5. The ability of a compound to inhibit PDE5 activity is related to the IC50 value for the compound, i.e., the concentration of inhibitor required for 50% inhibition of enzyme activity. The IC50 value for compounds of structural formula (I) were determined using recombinant human PDE5.
Recombinant production of human PDE1B, PDE2, PDE4A, PDE4B, PDE4C, PDE4D, PDE5, and PDE7 was carried out similarly to that described in Example 7 of U.S. Pat. No. 5,702,936, incorporated herein by reference, except that the yeast transformation vector employed, which is derived from the basic ADH2 plasmid described in Price et al., Methods in Enzymology, 185, pp. 308–318 (1990), incorporated yeast ADH2 promoter and terminator sequences and the Saccharomyces cerevisiae host was the protease-deficient strain BJ2-54 deposited on Aug. 31, 1998 with the American Type Culture Collection, Manassas, Virginia, under accession number ATCC 74465. Transformed host cells were grown in 2×SC-leu medium, pH 6.2, with trace metals, and vitamins. After 24 hours, YEP medium-containing glycerol was added to a final concentration of 2×YET/3% glycerol. Approximately 24 hr later, cells were harvested, washed, and stored at −70° C.
Phosphodiesterase activity of the preparations was determined as follows. PDE assays utilizing a charcoal separation technique were performed essentially as described in Loughney et al. (1996). In this assay, PDE activity converts [32P]cAMP or [32P]cGMP to the corresponding [32P]5′-AMP or [32P]5′-GMP in proportion to the amount of PDE activity present. The [32P]5′-AMP or [32P]5′-GMP then was quantitatively converted to free [32P]phosphate and unlabeled adenosine or guanosine by the action of snake venom 5′-nucleotidase. […] The assay was performed at 30° C. in a 100 μL reaction mixture containing (final concentrations) 40 mM Tris HCl (pH 8.0), 1 μM ZnSO4, 5 mM MgCl2, and 0.1 mg/mL bovine serum albumin (BSA). PDE enzyme was present in quantities that yield <30% total hydrolysis of substrate (linear assay conditions). The assay was initiated by addition of substrate (1 mM [32P]cAMP or cGMP), and the mixture was incubated for 12 minutes. Seventy-five (75) μg of Crotalus atrox venom then was added, and the incubation was continued for 3 minutes (15 minutes. total). The reaction was stopped by addition of 200 μL of activated charcoal (25 mg/mL suspension in 0.1 M NaH2PO4, pH 4). After centrifugation (750×g for 3 minutes) to sediment the charcoal, a sample of the supernatant was taken for radioactivity determination in a scintillation counter and the PDE activity was calculated.
Cell pellets (29 g) were thawed on ice with an equal volume of Lysis Buffer (25 mM Tris HCl, pH 8, 5 mM MgCl2, 0.25 mM DTT, 1 mM benzamidine, and 10 μM ZnSO4). Cells were lysed in a Microfluidizer® (Microfluidics Corp.) using nitrogen at 20,000 psi. The lysate was centrifuged and filtered through 0.45 μm disposable filters. The filtrate was applied to a 150 mL column of Q SEPHAROSE® FastFlow (Pharmacia). The column was washed with 1.5 volumes of Buffer A (20 mM Bis-Tris Propane, pH 6.8, 1 mM MgCl2, 0.25 mM DTT, 10 μM ZnSO4) and eluted with a step gradient of 125 mM NaCl in Buffer A followed by a linear gradient of 125–1000 mM NaCl in Buffer A. Active fractions from the linear gradient were applied to a 180 mL hydroxyapatite column in Buffer B (20 mM Bis-Tris Propane (pH 6.8), 1 mM MgCl2, 0.25 mM DTT, 10 μM ZnSO4, and 250 mM KCl). After loading, the column was washed with 2 volumes of Buffer B and eluted with a linear gradient of 0–125 mM potassium phosphate in Buffer B. Active fractions were pooled, precipitated with 60% ammonium sulfate, and resuspended in Buffer C (20 mM Bis-Tris Propane, pH 6.8, 125 mM NaCl, 0.5 mM DTT, and 10 μM ZnSO4). The pool was applied to a 140 mL column of SEPHACRYL® S-300 HR and eluted with Buffer C. Active fractions were diluted to 50% glycerol and stored at −20° C. […]

The target of a further data set is T1, PDE5 (bovine aorta) (Bos taurus, UniProt Q28156).
T1 construct: from tissue; host or cells: bovine aorta
Description: Inhibitory effect on cGMP-PDE, one-step assay, enzyme from bovine aorta. It counts as biochemical. Particulars: Table 1, Examples; footnote 1) vs. bovine aorta.

As for `CN(C)C(=O)[C@H]1Cc2c([nH]c3ccccc23)[C@@H](c2ccc3c(c2)OCO3)N1C(=O)/C=C/c1ccccc1` [Example 1, (1R,3R)-1-benzo[1,3]dioxol-5-yl-2-(3-phenylacryloyl)-2,3,4,9-tetrahydro-1H-β-carboline-3-carboxylic acid dimethylamide], the melting point lay in the range of 175 to 178 °C. For the same molecule, at recombinant human PDE5, the IC50 was 44 nM.
`COC(=O)[C@H]1Cc2c([nH]c3ccccc23)[C@@H](c2ccc3c(c2)OCO3)N1C(=O)Oc1ccc([N+](=O)[O-])cc1` [Example 3, (−)-(1R,3R)-1-Benzo[1,3]dioxol-5-yl-1,3,4,9-tetrahydro-beta-carboline-2,3-dicarboxylic acid 3-methyl ester 2-(4-nitrophenyl)ester] yielded a melting point of 175 to 187 °C. At recombinant human PDE5, the IC50 came out at 241 nM.
On PDE5 (bovine aorta), `CCCCNC(=O)N1[C@@H](c2cccnc2)c2[nH]c3ccccc3c2C[C@H]1C(=O)OCC` [Example 4] yielded an IC50 of 200 nM.
`COC(=O)CN1[C@@H](c2ccc(OC)cc2)c2[nH]c3ccccc3c2C[C@H]1C(=O)NCc1ccccc1` [Example 5]: the midpoint of inhibition at PDE5 (bovine aorta), the IC50, lay at 490 nM.
Consider `COC(=O)[C@@H]1Cc2c([nH]c3ccccc23)[C@H](c2ccc3c(c2)OCO3)N1C` [Example 6], for which, at recombinant human PDE5, the IC50 was 230 nM.
`COc1ccc([C@@H]2c3[nH]c4ccccc4c3C[C@@H](C(=O)NCc3ccccc3)N2C(C)=O)cc1` [Example 7] displayed an IC50 against PDE5 (bovine aorta) of 1000 nM.
As to `CCCNC(=O)[C@H]1Cc2c([nH]c3ccccc23)[C@@H](c2ccc3c(c2)OCO3)N1C(C)=O` [Example 8, (1R)-(+)-2-acetyl-1-benzo[1,3]dioxol-5-yl-2,3,4,9-tetrahydro-1H-β-carboline-3-carboxylic acid propylamide], the melting point was in the range of 163 to 165 °C. Also, at recombinant human PDE5, the IC50 stood at 502 nM.
On to `CC(=O)N1[C@H](c2ccc3c(c2)OCO3)c2[nH]c3ccccc3c2C[C@@H]1C(=O)N1CCOCC1` [Example 9, (1R)-(+)-1-[benzo[1,3]dioxol-5-yl-3-(morpholine-4-carbonyl)-1,3,4,9-tetrahydro-β-carbolin-2-yl]-ethanone], for which, on recombinant human PDE5, the concentration for half-maximal inhibition (IC50) was determined as 261 nM.
The molecule `CCCCNC(=O)[C@H]1Cc2c([nH]c3ccccc23)[C@@H](c2ccc3c(c2)OCO3)N1C(=O)/C=C/c1ccccc1` [Example 11, (1R,3R)-(+)-1-benzo[1,3]dioxol-5-yl-2-(3-phenylacryloyl)-2,3,4,9-tetrahydro-1H-β-carboline-3-carboxylic acid butylamide] came in with a melting point of 114 to 117 °C. Further, the IC50 on recombinant human PDE5 amounted to 629 nM.
In the case of `CNC(=O)[C@H]1Cc2c([nH]c3ccccc23)[C@@H](c2ccc3c(c2)OCO3)N1C(=O)/C=C/c1ccccc1` [Example 12], the IC50 on recombinant human PDE5 was found to be 30 nM.
Still for that read-out and setting: the same measure for `CNC(=O)[C@H]1Cc2c([nH]c3ccccc23)[C@@H](c2ccc3c(c2)OCO3)N1C(=O)/C=C/c1ccc(Cl)cc1` [Example 13]: 420 nM.

What is called IC50 is the concentration at which inhibition is half-maximal. Broadly, the melting point is the temperature, or range, at which the solid turns liquid.
